pIC50: −log10 of the molar value.
Experiments:
m17β-HSD2 = molecular target: T1, m17β-HSD2 (Mus musculus, UniProt P51658); experiment: Inhibition of m17β-HSD2 in cell-free assay; assay type: biochemical
T1 construct: The microsomal fraction (m17β-HSD2) was obtained from mouse liver as described for h17β-HSD2; tissue Pharmacelsus GmbH (mouse livers); host or cells: mouse liver, microsomal fraction
T1 sequence (P51658 1-381): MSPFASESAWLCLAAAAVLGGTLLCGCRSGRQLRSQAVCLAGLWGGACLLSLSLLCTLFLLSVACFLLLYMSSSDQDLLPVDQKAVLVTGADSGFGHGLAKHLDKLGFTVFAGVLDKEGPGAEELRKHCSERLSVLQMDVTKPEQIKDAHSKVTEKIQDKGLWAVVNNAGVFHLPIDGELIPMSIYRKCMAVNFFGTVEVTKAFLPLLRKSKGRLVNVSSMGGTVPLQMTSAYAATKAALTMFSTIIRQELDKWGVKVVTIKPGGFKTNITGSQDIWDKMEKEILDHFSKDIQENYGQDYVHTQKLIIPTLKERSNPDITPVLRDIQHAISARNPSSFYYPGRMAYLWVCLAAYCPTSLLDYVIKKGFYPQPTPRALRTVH
Outline: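 Mouse liver microsomal enzyme incubated with tritiated substrate, NAD+ [1500 μM] and inhibitor at 37 °C in 50 mM phosphate buffer with 20% glycerol, 1 mM EDTA, 1% DMSO final. Stopped after 20 min with HgCl2, steroids ether-extracted and quantified by HPLC radioflow detection; at least two independent experiments.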

h17β-HSD1 = molecular target: T2, h17β-HSD1 (Homo sapiens, UniProt P14061); experiment: Inhibition of h17β-HSD1 in cell-free assay; assay type: biochemical; settings: human placental cytosolic fraction, substrate E1 [500 nM], cofactor NADH [500 μM]
T2 construct: h17β-HSD1 was obtained after precipitation with ammonium sulfate from the cytosolic fraction; from tissue; host or cells: human placenta, cytosolic fraction
T2 sequence (P14061 1-328): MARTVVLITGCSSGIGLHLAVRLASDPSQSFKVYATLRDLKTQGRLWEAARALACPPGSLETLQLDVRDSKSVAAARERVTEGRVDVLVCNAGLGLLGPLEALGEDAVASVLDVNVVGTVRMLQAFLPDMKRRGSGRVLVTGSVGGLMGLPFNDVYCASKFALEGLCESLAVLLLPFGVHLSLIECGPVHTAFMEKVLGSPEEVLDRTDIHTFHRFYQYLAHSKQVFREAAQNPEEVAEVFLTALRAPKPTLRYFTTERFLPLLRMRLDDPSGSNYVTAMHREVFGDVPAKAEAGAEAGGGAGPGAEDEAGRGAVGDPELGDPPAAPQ
Outline: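 Cytosolic enzyme from human placenta, ammonium sulfate-precipitated, incubated with 500 μM NADH, test compound and unlabelled plus [3H]-E1 (500 nM final) for 10 min at 37°C. Steroids separated by HPLC with radiodetection to quantify conversion.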

ERβ = ERβ (Homo sapiens, UniProt Q92731); experiment: Estrogen receptor affinity in a cell-free assay (ERβ); assay type: binding; settings: 1000-fold excess relative to E2; recombinant human ERβ
ERβ, sequence (Q92731 whole entry): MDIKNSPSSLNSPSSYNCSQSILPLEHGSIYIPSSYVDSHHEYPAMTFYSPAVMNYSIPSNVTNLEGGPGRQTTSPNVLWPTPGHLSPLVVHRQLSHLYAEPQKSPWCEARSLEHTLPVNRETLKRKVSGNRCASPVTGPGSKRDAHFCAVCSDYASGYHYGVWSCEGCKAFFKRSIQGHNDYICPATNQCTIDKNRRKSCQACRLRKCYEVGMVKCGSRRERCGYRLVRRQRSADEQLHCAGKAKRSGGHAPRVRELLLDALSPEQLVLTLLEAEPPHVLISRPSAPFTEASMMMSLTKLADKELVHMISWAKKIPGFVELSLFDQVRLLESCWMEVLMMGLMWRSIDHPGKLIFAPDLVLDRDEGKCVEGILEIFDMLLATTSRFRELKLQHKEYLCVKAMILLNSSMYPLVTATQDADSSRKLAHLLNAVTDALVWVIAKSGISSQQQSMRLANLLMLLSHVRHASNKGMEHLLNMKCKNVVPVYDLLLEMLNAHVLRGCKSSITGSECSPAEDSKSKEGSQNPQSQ
Description: The binding affinity of selected compounds to ERα and ERβ was determined according to the recommendations of the US Environmental Protection Agency (EPA) by their Endocrine Disruptor Screening Program (EDSP)[24] using recombinant human proteins.
The potential inhibitors were dissolved in DMSO (5% final concentration). […] After incubation, ligand-receptor complexes were selectively bound to hydroxyapatite (83.5 g/LinTE-buffer). The bound complex was washed three times and resuspended in ethanol. For radiodetection, scintillator cocktail (Quickszint 212, Zinsser Analytic, Frankfurt) was added and samples were measured in a liquid scintillation counter (1450 LSC & Luminescence Counter, Perkin Elmer).
After the assay was established and validated, a modification was made to increase throughput.

h17β-HSD2 = molecular target: T3, h17β-HSD2 (Homo sapiens, UniProt P37059); experiment: Inhibition of h17β-HSD2 in cell-free assay; assay type: biochemical; set-up: from tissue; host or cells: human placenta, microsomal fraction; settings: for s.f. (selectivity factor) = IC50(17β-HSD1)/IC50(17β-HSD2): human enzymes, cell-free
T3 sequence (P37059 1-387): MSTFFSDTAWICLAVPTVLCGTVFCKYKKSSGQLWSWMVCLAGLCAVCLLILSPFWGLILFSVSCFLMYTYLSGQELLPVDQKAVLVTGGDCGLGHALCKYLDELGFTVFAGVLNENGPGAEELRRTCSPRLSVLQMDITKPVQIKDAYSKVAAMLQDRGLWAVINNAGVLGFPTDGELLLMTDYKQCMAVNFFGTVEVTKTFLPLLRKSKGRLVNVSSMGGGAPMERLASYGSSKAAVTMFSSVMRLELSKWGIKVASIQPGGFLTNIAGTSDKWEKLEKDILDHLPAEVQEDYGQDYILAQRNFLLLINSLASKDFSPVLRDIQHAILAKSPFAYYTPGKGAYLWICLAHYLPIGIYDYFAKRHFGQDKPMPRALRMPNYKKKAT

Row | Structure (SMILES) | pIC50 (m17β-HSD2) | pIC50 (h17β-HSD1) | displacement of E2 from ERβ (ERβ) [%] | pIC50 (h17β-HSD2) | s.f. (selectivity factor) = IC50(17β-HSD1)/IC50(17β-HSD2) (h17β-HSD2) | inhibition at 1 µM (m17β-HSD2; read-out: % inh. at 1 μM m17β-HSD2) [%] | melting point [°C]
1 | COc1cccc(N(C)C(=O)c2ccc(-c3cccc(C)c3)cc2)c1 [Compound 6a, N-(3-methoxyphenyl)-N,3'-dimethyl-[1,1'-biphenyl]-4-carboxamide] | 6.59 | 5.19 | ≤ 20 | 6.59 | 25 | – | –
2 | COc1cccc(N(C)C(=O)c2ccc(-c3ccc(C)c(C)c3)cc2)c1 [Compound 17a, N-(3-methoxyphenyl)-N,3',4'-trimethyl-[1,1'-biphenyl]-4-carboxamide] | 6.85 | 4.88 | ≤ 20 | 6.52 | 44 | – | –
3 | Cc1cccc(N(C)C(=O)c2ccc(-c3cccc(C)c3F)cc2)c1 [Compound 21a, 2'-Fluoro-N,3'-dimethyl-N-(m-tolyl)-[1,1'-biphenyl]-4-carboxamide] | – | 5.43 | ≤ 20 | 6.48 | 11 | 56 | 73 to 76
4 | Cc1cccc(-c2ccc(C(=O)N(C)Cc3cccc(O)c3)cc2)c1F [Compound 25, 2'-Fluoro-N-(3-hydroxybenzyl)-N,3'-dimethyl-[1,1'-biphenyl]-4-carboxamide] | 6.72 | 4.51 | ≤ 20 | 6.59 | 118 | – | 123 to 126
